The target of the test is human MAT2A enzyme (Homo sapiens (Human), UniProt P31153). Briefly: In vitro enzymatic inhibition activity assay on MAT2A (PiColorLock phosphate detection). Particulars: purified human MAT2A 10 nM, ATP 50 μM, L-methionine 100 μM, 6 h at 23° C.; read-out: MAT2A inhibitory activity IC50. In kind it is biochemical. The procedure, abridged: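 IC50 came from an 8-point, 10-fold compound series that reduced phosphate release, measured by absorbance at 630 nm. Reactions ran 6 h at 23 °C with 10 nM human MAT2A, 50 μM ATP and 100 μM L-methionine in pH 7.5 Tris buffer containing Mg2+.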
Chain of human MAT2A enzyme (P31153 whole entry): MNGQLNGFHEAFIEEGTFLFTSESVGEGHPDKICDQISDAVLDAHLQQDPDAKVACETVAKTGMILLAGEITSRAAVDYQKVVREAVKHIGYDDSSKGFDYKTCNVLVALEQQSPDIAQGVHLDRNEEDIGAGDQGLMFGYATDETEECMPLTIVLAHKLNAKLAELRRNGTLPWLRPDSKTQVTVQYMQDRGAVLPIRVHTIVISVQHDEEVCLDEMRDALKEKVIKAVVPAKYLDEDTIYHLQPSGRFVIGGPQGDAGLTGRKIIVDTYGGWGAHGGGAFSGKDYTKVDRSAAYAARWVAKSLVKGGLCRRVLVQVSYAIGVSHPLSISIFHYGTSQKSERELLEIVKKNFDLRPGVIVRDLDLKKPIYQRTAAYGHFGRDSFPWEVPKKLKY
For orientation: IC50 means the concentration needed to halve the response being measured. Regarding `COC(=O)c1c(N)c2ccc(C(F)(F)F)nc2n(-c2ccc(N)cc2C)c1=O` [Example 282, methyl 4-amino-1-(4-amino-2-methylphenyl)-2-oxo-7-(trifluoromethyl)-1,2-dihydro-1,8-naphthyridine-3-carboxylate], the IC50 is 2.2 nM.
To `COC(=O)c1c(N)c2ccc(C(F)(F)F)nc2n(-c2ccc3ccncc3c2)c1=O` [Example 283, methyl 4-amino-1-(isoquinolin-7-yl)-2-oxo-7-(trifluoromethyl)-1,2-dihydro-1,8-naphthyridine-3-carboxylate] belongs 0.7 nM; to `COC(=O)c1c(N)c2ccc(Br)cc2n(-c2cccc(N)c2)c1=O` [Example 284, methyl 4-amino-1-(3-aminophenyl)-7-bromo-2-oxo-1,2-dihydroquinoline-3-carboxylate], 2.44 nM; to `COC(=O)c1c(N)c2ccc(Br)nc2n(-c2ccc(Cl)cc2C)c1=O` [Example 287, methyl 4-amino-7-bromo-1-(4-chloro-2-methylphenyl)-2-oxo-1,2-dihydro-1,8-naphthyridine-3-carboxylate], 1.45 nM.
Under `COC(=O)c1c(N)c2ccc(Br)nc2n(-c2ccc(Cl)c3cnccc23)c1=O` [Example 289, methyl 4-amino-1-(8-chloroisoquinolin-5-yl)-7-bromo-2-oxo-1,2-dihydro-1,8-naphthyridine-3-carboxylate] stands 1.04 nM; under `COC(=O)c1c(N)c2ccc(Br)nc2n(-c2cccc3c(C)nccc23)c1=O` [Example 290, methyl 4-amino-1-(1-methylisoquinolin-5-yl)-7-bromo-2-oxo-1,2-dihydro-1,8-naphthyridine-3-carboxylate], 0.79 nM.
To `COC(=O)c1c(N)c2ccc(Br)cc2n(-c2ccc(C(C)O)nc2)c1=O` (stereo not shown) [Example 291, methyl 4-amino-1-(6-(1-hydroxyethyl)pyridin-3-yl)-2-oxo-7-bromo-1,2-dihydroquinoline-3-carboxylate] belongs 2.18 nM; to `COC(=O)c1c(N)c2ccc(I)cc2n(-c2ccc(C)nc2C)c1=O` [Example 294, methyl 4-amino-1-(2,6-dimethylpyridin-3-yl)-2-oxo-7-iodo-1,2-dihydroquinoline-3-carboxylate], 1.08 nM.
Take `COC(=O)c1c(N)c2ccc(Br)nc2n(-c2ccc(N)cc2Cl)c1=O` [Example 295, methyl 4-amino-1-(4-amino-2-chlorophenyl)-2-oxo-7-bromo-1,2-dihydro-1,8-naphthyridine-3-carboxylate]: the IC50 amounted to 0.89 nM.
In the case of `COC(=O)c1c(N)c2ccc(Br)nc2n(-c2cnc(Cl)cc2C)c1=O` [Example 296, methyl 4-amino-7-bromo-1-(6-chloro-4-methylpyridin-3-yl)-2-oxo-1,2-dihydro-1,8-naphthyridine-3-carboxylate], the IC50 amounted to 2 nM.
To `COC(=O)c1c(N)c2ccc(Br)nc2n(-c2ccc(Cl)nc2)c1=O` [Example 297, methyl 4-amino-7-bromo-1-(6-chloropyridin-3-yl)-2-oxo-1,2-dihydro-1,8-naphthyridine-3-carboxylate] belongs 2.04 nM.
To `COC(=O)c1c(N)c2ccc(I)cc2n(-c2ccc(C(C)O)cc2)c1=O` (stereo not shown) [Example 298, methyl 4-amino-1-(4-(1-hydroxyethyl)phenyl)-2-oxo-7-iodo-1,2-dihydroquinoline-3-carboxylate] belongs 0.43 nM; to `COC(=O)c1c(N)c2ccc(C(F)(F)F)nc2n(-c2ccc(C(C)O)cc2)c1=O` (stereo not shown) [Example 303, methyl 4-amino-1-(4-(1-hydroxyethyl)phenyl)-2-oxo-7-(trifluoromethyl)-1,2-dihydro-1,8-naphthyridine-3-carboxylate], 0.92 nM.
In the case of `COC(=O)c1c(N)c2ccc(Br)nc2n(-c2ccc(N)cc2C)c1=O` [Example 304, methyl 4-amino-1-(4-amino-2-methylphenyl)-7-bromo-2-oxo-1,2-dihydro-1,8-naphthyridine-3-carboxylate], the IC50 is 2.28 nM.
Consider `COC(=O)c1c(N)c2ccc(I)cc2n(-c2ccc(C(C)O)nc2)c1=O` (stereo not shown) [Example 307, methyl 4-amino-1-(6-(1-hydroxyethyl)pyridin-3-yl)-2-oxo-7-iodo-1,2-dihydroquinoline-3-carboxylate], for which the IC50 was 1.14 nM.
For `COC(=O)c1c(N)c2ccc(C(F)(F)F)nc2n(-c2ccc(N)nc2C)c1=O` [Example 308, methyl 4-amino-1-(6-amino-2-methylpyridin-3-yl)-2-oxo-7-(trifluoromethyl)-1,2-dihydro-1,8-naphthyridine-3-carboxylate], the IC50 is 2.42 nM.
To `COC(=O)c1c(N)c2ccc(C(F)(F)F)nc2n(-c2ccc3nccn3c2)c1=O` [Example 309, methyl 4-amino-1-(imidazo[3,2-a]pyridin-6-yl)-2-oxo-7-(trifluoromethyl)-1,2-dihydro-1,8-naphthyridine-3-carboxylate] belongs 2.02 nM.
To `[2H]C([2H])([2H])OC(=O)c1c(N)c2ccc(C(F)(F)F)nc2n(-c2ccc(C(C)O)cc2)c1=O` (stereo not shown) [Example 310, methyl-d3 4-amino-1-(4-(1-hydroxyethyl)phenyl)-2-oxo-7-(trifluoromethyl)-1,2-dihydro-1,8-naphthyridine-3-carboxylate] belongs 0.74 nM; to `[2H]C([2H])([2H])OC(=O)c1c(N)c2ccc(Br)cc2n(-c2ccc(C(C)O)cc2)c1=O` (stereo not shown) [Example 311, methyl-d3 4-amino-7-bromo-1-(4-(1-hydroxyethyl)phenyl)-2-oxo-1,2-dihydroquinoline-3-carboxylate], 0.6 nM; to `COC(=O)c1c(N)c2ccc(C(F)(F)F)nc2n(-c2cccc3c(Cl)nccc23)c1=O` [Example 318, methyl 4-amino-1-(1-chloroisoquinolin-5-yl)-2-oxo-7-(trifluoromethyl)-1,2-dihydro-1,8-naphthyridine-3-carboxylate], 2.34 nM.
Under `COC(=O)c1c(N)c2ccc(C(F)(F)F)nc2n(-c2cccc3c(C)nccc23)c1=O` [Example 319, methyl 4-amino-1-(1-methylisoquinolin-5-yl)-2-oxo-7-(trifluoromethyl)-1,2-dihydro-1,8-naphthyridine-3-carboxylate] stands 1.2 nM; under `COC(=O)c1c(N)c2ccc(Cl)cc2n(-c2ccc(N)cc2)c1=O` [Example 322, methyl 4-amino-7-chloro-1-(4-aminophenyl)-2-oxo-1,2-dihydroquinoline-3-carboxylate], 1.84 nM.
Regarding `COC(=O)c1c(N)c2ccc(C(F)F)cc2n(-c2ccc(N)cc2)c1=O` [Example 327, methyl 4-amino-1-(4-aminophenyl)-2-oxo-7-(difluoromethyl)-1,2-dihydro quinoline-3-carboxylate], the IC50 amounted to 1.25 nM.
Under `COC(=O)c1c(N)c2ccc(C3CC3)cc2n(-c2ccc(C(C)O)cc2)c1=O` (stereo not shown) [Example 328, methyl 4-amino-1-(4-(1-hydroxyethyl)phenyl)-2-oxo-7-cyclopropyl-1,2-dihydroquinoline-3-carboxylate] stands 2.59 nM; under `COC(=O)c1c(N)c2ccc(C)cc2n(-c2ccc(C(C)O)cc2)c1=O` (stereo not shown) [Example 329, methyl 4-amino-1-(4-(1-hydroxyethyl)phenyl)-2-oxo-7-methyl-1,2-dihydroquinoline-3-carboxylate], 2.65 nM; under `CCOC(=O)c1c(N)c2ccc(C(F)(F)F)cc2n(-c2ccc([C@@H](C)O)cc2)c1=O` [Example 330, ethyl 4-amino-1-(4-(1-(R)-hydroxyethyl)phenyl)-2-oxo-7-(trifluoromethyl)-1,2-dihydroquinoline-3-carboxylate], 0.92 nM.
As to `[2H]C([2H])([2H])OC(=O)c1c(N)c2ccc(C(F)(F)F)cc2n(-c2ccc(C(C)O)cc2)c1=O` (stereo not shown) [Example 331, methyl-d3 4-amino-1-(4-(1-hydroxyethyl)phenyl)-2-oxo-7-(trifluoromethyl)-1,2-dihydroquinolin-3-carboxylate], the IC50 came out at 2.49 nM.
To `COC(=O)c1c(N)c2ccc(Br)nc2n(-c2ccc(C(C)O)nc2)c1=O` (stereo not shown) [Example 332, methyl 4-amino-7-bromo-1-(6-(1-hydroxyethyl)pyridin-3-yl)-2-oxo-1,2-dihydro-1,8-naphthyridine-3-carboxylate] belongs 2.28 nM; to `COC(=O)c1c(N)c2ccc(OC(F)F)cc2n(-c2ccc(C(C)O)cc2)c1=O` (stereo not shown) [Example 335, methyl 4-amino-7-(difluoromethoxy)-1-(4-(1-hydroxyethyl)phenyl)-2-oxo-1,2-dihydroquinoline-3-carboxylate], 2.06 nM.
Under `COC(=O)c1c(N)c2ccc(C(F)F)cc2n(-c2ccc(C(C)O)cc2)c1=O` (stereo not shown) [Example 336, methyl 4-amino-7-(difluoromethyl)-1-(4-(1-hydroxyethyl)phenyl)-2-oxo-1,2-dihydroquinoline-3-carboxylate] stands 1.94 nM; under `COC(=O)c1c(N)c2ccc(Br)c(F)c2n(-c2ccc(N)cc2)c1=O` [Example 338, methyl 4-amino-1-(4-aminophenyl)-7-bromo-8-fluoro-2-oxo-1,2-dihydroquinoline-3-carboxylate], 1.45 nM; under `COC(=O)c1c(N)c2c(F)cc(Br)cc2n(-c2ccc(N)cc2)c1=O` [Example 339, methyl 4-amino-1-(4-aminophenyl)-7-bromo-5-fluoro-2-oxo-1,2-dihydroquinoline-3-carboxylate], 2.3 nM.
Under `COC(=O)c1c(N)c2ccc(C)nc2n(-c2ccc([C@@H](C)O)cc2)c1=O` [Example 343, methyl 4-amino-(1-(4-(1R)-1-hydroxyethyl)phenyl)-7-methyl-2-oxo-pyrido[2,3-b]pyridin-3-carboxylate] stands 2.39 nM; under `COC(=O)c1c(N)c2ccc(C(F)(F)F)nc2n(-c2ccc([C@@H](C)O)cc2)c1=O` [Example 348, methyl 4-amino-(1-(4-(1R)-1-hydroxyethyl)phenyl)-7-(trifluoromethyl)-2-oxo-pyrido[2,3-b]pyridin-3-carboxylate], 1.33 nM.

These data come from patent US20250221979A1, “NOVEL HETEROCYCLIC COMPOUND” (SHOUYAO HOLDINGS (BEIJING) CO., LTD., priority 2022, published 2025).
